Tested on: T cell clone Z4B27
Assay: Antigen presentation assay: IFN-γ release by T cell clone Z4B27
Assay type: cell-based
Conditions: CD1+ APC preincubated 2 h with sonicated antigen 1-10 μg/mL, 36 h, ELISA; FIG. 1; compared with unsulfated compound f and saturated comparative compound
Protocol: The release of IFN-γ produced by T cell clone Z4B27 prepared in accordance with the method disclosed in WO 2004/092192 in response to stimulation by the compounds of the invention was measured.
CD1+APC were preincubated at 5×10^4 cells/well for 2 h at 37° C. with sonicated antigen (1-10 μg/mL) before addition of T cells (5×10^4/well in triplicate). After 36 h released TNF-α and IFN-γ were measured using sandwich ELISA kits (Instrumentation Laboratory). Data are expressed as mean ng/mL or pg/mL±SD of triplicates. All experiments were repeated at least 2 times.

CCCCCCCCCCCCCCCCC(C)CC(C)CC(C)C=C(C)C(=O)OC1C(O)C(CO)OC(OC2OC(CO)C(O)C(O)C2OS(=O)(=O)O)C1OC(=O)CCCCCCCCCCCCCCC [compound e, 2′-O-Sulfate-2-O-hexadecanoyl-3-O-[(4S,6S,8S)-2,4,6,8-tetramethyltetracos-2-enoyl]-α,α′-D-trehalose]
IFN-γ produced by T cell clone Z4B27 in response to stimulation: better activity
